Assay results taken from ChEMBL document CHEMBL1201861, “Genomics of Drug Sensitity in Cancer screening data, Wellcome Trust Sanger Institute”.

Columns and labels:
Assay in all cases: cells
[1] = system: MMAC-SF; format: functional, cell-based, Homo sapiens; details: Homo sapiens, MMAC-SF;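 further: growth inhibition of human MMAC-SF cells, read out with a cell viability assay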
Description: SANGER: Inhibition of human MMAC-SF cell growth in a cell viability assay.

[2] = system: OE19; format: functional, cell-based, Homo sapiens; details: Homo sapiens, OE19;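 further: growth inhibition of OE19 cells, measured through a cell viability read-out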
Description: SANGER: Inhibition of human OE19 cell growth in a cell viability assay.

[3] = system: NB10; format: functional, cell-based, Homo sapiens; details: Homo sapiens, NB10;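 further: growth inhibition of NB10 cells, read out by a cell viability assay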
Description: SANGER: Inhibition of human NB10 cell growth in a cell viability assay.

[4] = system: P30-OHK; format: functional, cell-based; details: Homo sapiens;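 further: growth inhibition of the P30-OHK cell line, read out with a cell viability assay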
Description: SANGER: Inhibition of human P30-OHK cell growth in a cell viability assay.

[5] = system: ES3; format: functional, cell-based, Homo sapiens; details: Homo sapiens, ES3;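 further: growth inhibition of ES3 cells, read out with a cell viability assay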
Description: SANGER: Inhibition of human ES3 cell growth in a cell viability assay.

[6] = system: UMC-11; format: functional, cell-based, Homo sapiens; details: Homo sapiens, UMC-11;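 further: growth inhibition of UMC-11 cells, read out with a cell viability assay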
Description: SANGER: Inhibition of human UMC-11 cell growth in a cell viability assay.

[7] = system: U-87 MG; format: functional, cell-based, U-87MG ATCC; details: Homo sapiens;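 further: growth inhibition of the cells measured with a viability assay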
Description: SANGER: Inhibition of human U-87-MG cell growth in a cell viability assay.

[8] = system: NCI-H1581; format: functional, cell-based, Homo sapiens; details: Homo sapiens, NCI-H1581;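 further: cell growth inhibition read out by a viability assay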
Description: SANGER: Inhibition of human NCI-H1581 cell growth in a cell viability assay.

[9] = system: PANC-03-27; format: functional, cell-based, Homo sapiens; details: Homo sapiens, PANC-03-27
Description: SANGER: Inhibition of human PANC-03-27 cell growth in a cell viability assay.

[10] = system: BHY; format: functional, cell-based, Homo sapiens; details: Homo sapiens, BHY;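 further: cell growth inhibition read out by a viability assay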
Description: SANGER: Inhibition of human BHY cell growth in a cell viability assay.

[11] = system: D-502MG; format: functional, cell-based, Homo sapiens; details: Homo sapiens, D-502MG
Description: SANGER: Inhibition of human D-502MG cell growth in a cell viability assay.

[12] = system: DMS-79; format: functional, cell-based; details: Homo sapiens;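 further: growth inhibition measured with a cell viability assay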
Description: SANGER: Inhibition of human DMS-79 cell growth in a cell viability assay.

[13] = system: NCI-H1437; format: functional, cell-based, Homo sapiens; details: Homo sapiens, NCI-H1437;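 further: growth inhibition of human NCI-H1437 cells, read out by a cell viability assay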
Description: SANGER: Inhibition of human NCI-H1437 cell growth in a cell viability assay.

[14] = system: SW1463; format: functional, cell-based, Homo sapiens; details: Homo sapiens, SW1463;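 further: growth inhibition of SW1463 cells, determined with a cell viability assay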
Description: SANGER: Inhibition of human SW1463 cell growth in a cell viability assay.

[15] = system: M14; format: functional, cell-based, Homo sapiens; details: Homo sapiens, M14;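 further: growth inhibition of M14 cells, read out with a cell viability assay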
Description: SANGER: Inhibition of human M14 cell growth in a cell viability assay.

[16] = system: HH; format: functional, cell-based; details: Homo sapiens
Description: SANGER: Inhibition of human HH cell growth in a cell viability assay.

[17] = system: EM-2; format: functional, cell-based; details: Homo sapiens;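 further: growth inhibition of EM-2 cells, read out with a cell viability assay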
Description: SANGER: Inhibition of human EM-2 cell growth in a cell viability assay.

[18] = system: U-251; format: functional, cell-based, Homo sapiens; details: Homo sapiens, U-251;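 further: growth inhibition of human U-251 cells, read out through a cell viability assay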
Description: SANGER: Inhibition of human U251 cell growth in a cell viability assay.

[19] = system: C2BBe1; format: functional, cell-based, Homo sapiens; details: Homo sapiens, C2BBe1;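 further: growth inhibition of C2BBe1 cells, read out through a viability assay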
Description: SANGER: Inhibition of human C2BBe1 cell growth in a cell viability assay.

[20] = system: DMS-114; format: functional, cell-based, Homo sapiens; details: Homo sapiens, DMS-114
[21] = system: NCI-H2170; format: functional, cell-based, Homo sapiens; details: Homo sapiens, NCI-H2170;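 further: cell viability assay measuring growth inhibition of human NCI-H2170 cancer cells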
Description: SANGER: Inhibition of human NCI-H2170 cell growth in a cell viability assay.

[22] = system: BXPC-3; format: functional, cell-based, Homo sapiens; details: Homo sapiens, BXPC-3;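 further: growth inhibition of human BxPC-3 cells, read out by a cell viability assay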
Description: SANGER: Inhibition of human BxPC-3 cell growth in a cell viability assay.

[23] = system: LB831-BLC; format: functional, cell-based, Homo sapiens; details: Homo sapiens, LB831-BLC;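 further: growth inhibition of LB831-BLC cells, read out with a cell viability assay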
Description: SANGER: Inhibition of human LB831-BLC cell growth in a cell viability assay.

[24] = system: AM-38; format: functional, cell-based, Homo sapiens; details: Homo sapiens, AM-38;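 further: growth inhibition of AM-38 cells of human origin, read out by a cell viability assay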
Description: SANGER: Inhibition of human AM-38 cell growth in a cell viability assay.

[25] = system: NB13; format: functional, cell-based, Homo sapiens; details: Homo sapiens, NB13;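 further: cell viability readout measuring growth inhibition of human NB13 cells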
Description: SANGER: Inhibition of human NB13 cell growth in a cell viability assay.

[26] = system: KY821; format: functional, cell-based; details: Homo sapiens;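 further: growth inhibition of human KY821 cells, read out by a cell viability assay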
Description: SANGER: Inhibition of human KY821 cell growth in a cell viability assay.

[27] = system: NEC8; format: functional, cell-based, Homo sapiens; details: Homo sapiens, NEC8;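 further: growth inhibition of human NEC8 cells, read out by a cell viability assay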
Description: SANGER: Inhibition of human NEC8 cell growth in a cell viability assay.

[28] = system: EW-3; format: functional, cell-based; details: Homo sapiens;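 further: cell viability assay read-out, IC50 reflects inhibition of growth of the EW-3 cells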
Description: SANGER: Inhibition of human EW-3 cell growth in a cell viability assay.

[29] = system: NCI-H1092; format: functional, cell-based; details: Homo sapiens;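 further: cell growth inhibition measured with a cell viability assay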
Description: SANGER: Inhibition of human NCI-H1092 cell growth in a cell viability assay.

[30] = system: MLMA; format: functional, cell-based, Homo sapiens; details: Homo sapiens, MLMA;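 further: growth inhibition of MLMA cells (human), determined through a cell viability readout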
Description: SANGER: Inhibition of human MLMA cell growth in a cell viability assay.

[31] = system: SCC-4; format: functional, cell-based, Homo sapiens; details: Homo sapiens, SCC-4;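 further: growth inhibition of human SCC-4 cells, read out as cell viability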
Description: SANGER: Inhibition of human SCC-4 cell growth in a cell viability assay.

[32] = system: NCI-H209; format: functional, cell-based; details: Homo sapiens;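 further: growth inhibition of human NCI-H209 cells, measured by a cell viability assay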
Description: SANGER: Inhibition of human NCI-H209 cell growth in a cell viability assay.

[33] = system: 697; format: functional, cell-based; details: Homo sapiens
Description: SANGER: Inhibition of human 697 cell growth in a cell viability assay.

[34] = system: NCI-H1155; format: functional, cell-based; details: Homo sapiens;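 further: cell growth inhibition measured by a viability assay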
Description: SANGER: Inhibition of human NCI-H1155 cell growth in a cell viability assay.

[35] = system: G-402; format: functional, cell-based, Homo sapiens; details: Homo sapiens, G-402
Description: SANGER: Inhibition of human G-402 cell growth in a cell viability assay.

[36] = system: COLO-684; format: functional, cell-based; details: Homo sapiens
Description: SANGER: Inhibition of human COLO-684 cell growth in a cell viability assay.

[37] = system: RCM-1; format: functional, cell-based, Homo sapiens; details: Homo sapiens, RCM-1;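 further: growth inhibition of the RCM-1 line, determined with a cell viability readout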
Description: SANGER: Inhibition of human RCM-1 cell growth in a cell viability assay.

[38] = system: Ramos-2G6-4C10; format: functional, cell-based; details: Homo sapiens;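 further: growth inhibition of the cell line, measured by a cell viability read-out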
Description: SANGER: Inhibition of human Ramos-2G6-4C10 cell growth in a cell viability assay.

[39] = system: BT-474; format: functional, cell-based, Homo sapiens; details: Homo sapiens, BT-474
Description: SANGER: Inhibition of human BT-474 cell growth in a cell viability assay.

[40] = system: MDA-MB-175-VII; format: functional, cell-based, Homo sapiens; details: Homo sapiens, MDA-MB-175-VII
[41] = system: HuTu80; format: functional, cell-based, Homo sapiens, HUTU-80; details: Homo sapiens, HuTu80;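 further: growth inhibition of HuTu80 human cells, determined with a cell viability readout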
Description: SANGER: Inhibition of human HUTU-80 cell growth in a cell viability assay.

[42] = system: HCC1954; format: functional, cell-based, Homo sapiens; details: Homo sapiens, HCC1954;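 further: growth inhibition of human HCC1954 cells, read out with a cell viability assay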
Description: SANGER: Inhibition of human HCC1954 cell growth in a cell viability assay.

[43] = system: Mo; format: functional, cell-based; details: Homo sapiens
Description: SANGER: Inhibition of human Mo-T cell growth in a cell viability assay.

[44] = system: LS-1034; format: functional, cell-based, Homo sapiens; details: Homo sapiens, LS-1034
Description: SANGER: Inhibition of human LS-1034 cell growth in a cell viability assay.

[45] = system: MV4-11; format: functional, cell-based, MV-4-11; details: Homo sapiens;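 further: cell viability readout measuring growth inhibition of human MV-4-11 cells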
Description: SANGER: Inhibition of human MV-4-11 cell growth in a cell viability assay.

[46] = system: CWR22R; format: functional, cell-based, Homo sapiens; details: Homo sapiens, 22Rv1;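 further: growth inhibition of 22Rv1 cells, read out with a cell viability assay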
Description: SANGER: Inhibition of human 22RV1 cell growth in a cell viability assay.

[47] = system: FaDu; format: functional, cell-based, Homo sapiens; details: Homo sapiens, FaDu;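 further: cell viability readout of growth inhibition in FaDu cells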
Description: SANGER: Inhibition of human FADU cell growth in a cell viability assay.

[48] = system: CW-2; format: functional, cell-based, Homo sapiens; details: Homo sapiens, CW-2;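 further: growth inhibition of CW-2 cells, read out by a cell viability assay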
Description: SANGER: Inhibition of human CW-2 cell growth in a cell viability assay.

[49] = system: JEG-3; format: functional, cell-based, Homo sapiens; details: Homo sapiens, JEG-3;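 further: growth inhibition of human JEG-3 cells, read out with a cell viability assay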
Description: SANGER: Inhibition of human JEG-3 cell growth in a cell viability assay.

[50] = system: 8-MG-BA; format: functional, cell-based, Homo sapiens; details: Homo sapiens, 8-MG-BA;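 further: growth inhibition of 8-MG-BA cells, read out with a cell viability assay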
Description: SANGER: Inhibition of human 8-MG-BA cell growth in a cell viability assay.

[51] = system: BE-13; format: functional, cell-based; details: Homo sapiens;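 further: growth inhibition of human BE-13 cells, measured with a cell viability assay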
Description: SANGER: Inhibition of human BE-13 cell growth in a cell viability assay.

[52] = system: SNU1; format: functional, cell-based; details: Homo sapiens;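 further: growth inhibition of human NCI-SNU-1 cells, measured with a cell viability assay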
Description: SANGER: Inhibition of human NCI-SNU-1 cell growth in a cell viability assay.

[53] = system: SW-620; format: functional, cell-based, Homo sapiens; details: Homo sapiens, SW-620;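 further: growth inhibition of human SW-620 cells, measured by a cell viability assay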
Description: SANGER: Inhibition of human SW620 cell growth in a cell viability assay.

O=C(NOCC1CC1)c1ccc(F)c(F)c1Nc1ccc(I)cc1Cl [CI-1040]
IC50 [1]: 110 nM
IC50 [2]: > 10 µM
IC50 [3]: 5.89 µM
IC50 [4]: 9.65 µM
IC50 [5]: > 10000 nM
IC50 [6]: > 10 µM
IC50 [7]: > 10000 nM
IC50 [8]: 8.26 µM
IC50 [9]: 3350 nM
IC50 [10]: > 10000 nM
IC50 [11]: > 10 µM
IC50 [12]: > 10 µM
IC50 [13]: 1550 nM
IC50 [14]: 1340 nM
IC50 [15]: 155 nM
IC50 [16]: 4.42 µM
IC50 [17]: 2070 nM
IC50 [18]: > 10000 nM
IC50 [19]: 810 nM
IC50 [20]: > 10000 nM
IC50 [21]: > 10 µM
IC50 [22]: > 10 µM
IC50 [23]: > 10 µM
IC50 [24]: > 10000 nM
IC50 [25]: > 10 µM
IC50 [26]: 379 nM
IC50 [27]: > 10000 nM
IC50 [28]: > 10000 nM
IC50 [29]: > 10 µM
IC50 [30]: > 10000 nM
IC50 [31]: > 10000 nM
IC50 [32]: > 10 µM
IC50 [33]: 3700 nM
IC50 [34]: 5400 nM
IC50 [35]: > 10000 nM
IC50 [36]: > 10 µM
IC50 [37]: 1240 nM
IC50 [38]: > 10000 nM
IC50 [39]: > 10 µM
IC50 [40]: > 10000 nM
IC50 [41]: > 10000 nM
IC50 [42]: > 10 µM
IC50 [43]: > 10 µM
IC50 [44]: > 10 µM
IC50 [45]: 6.23 µM
IC50 [46]: > 10 µM
IC50 [47]: 5.56 µM
IC50 [48]: > 10000 nM
IC50 [49]: > 10000 nM
IC50 [50]: > 10000 nM
IC50 [51]: 7.34 µM
IC50 [52]: 754 nM
IC50 [53]: 1140 nM

Nc1ccn([C@@H]2O[C@H](CO)[C@@H](O)[C@@H]2O)c(=O)n1 [CYTARABINE]
IC50 [1]: > 2000 nM
IC50 [2]: > 2 µM
IC50 [3]: 0.188 µM
IC50 [4]: 0.0565 µM
IC50 [5]: 199 nM
IC50 [6]: > 2 µM
IC50 [7]: 1740 nM
IC50 [8]: 1.77 µM
IC50 [9]: 897 nM
IC50 [10]: 898 nM
IC50 [11]: > 2 µM
IC50 [12]: > 2 µM
IC50 [13]: 798 nM
IC50 [14]: > 2000 nM
IC50 [15]: 632 nM
IC50 [16]: > 2 µM
IC50 [17]: 211 nM
IC50 [18]: 1130 nM
IC50 [19]: 166 nM
IC50 [20]: 1680 nM
IC50 [21]: > 2 µM
IC50 [22]: > 2 µM
IC50 [23]: > 2 µM
IC50 [24]: 1470 nM
IC50 [25]: > 2 µM
IC50 [26]: > 2000 nM
IC50 [27]: 134 nM
IC50 [28]: 830 nM
IC50 [29]: > 2 µM
IC50 [30]: 55.5 nM
IC50 [31]: 965 nM
IC50 [32]: > 2 µM
IC50 [33]: 10.6 nM
IC50 [34]: 397 nM
IC50 [35]: 650 nM
IC50 [36]: > 2 µM
IC50 [37]: > 2000 nM
IC50 [38]: 868 nM
IC50 [39]: > 2 µM
IC50 [40]: 1990 nM
IC50 [41]: 561 nM
IC50 [42]: > 2 µM
IC50 [43]: > 2 µM
IC50 [44]: > 2 µM
IC50 [45]: 1.85 µM
IC50 [46]: > 2 µM
IC50 [47]: > 2 µM
IC50 [48]: 613 nM
IC50 [49]: 431 nM
IC50 [50]: 341 nM
IC50 [51]: 0.825 µM
IC50 [52]: 96.8 nM
IC50 [53]: 349 nM
